{
  "source": "a melting point compilation (Tetko et al.; mined from patent text by program, amines drawn as free bases though some values may be those of a salt)",
  "data": [
    {"units": {"melting point": "°C"}, "values": [
      {"smiles": "Cc1nc2sccn2c(=O)c1CCN1CCC(=C2c3ccc(F)cc3CCn3ncnc32)CC1", "melting point": 162},
      {"smiles": "CC(=O)C(=Cc1ccc(O)cc1)C(C)=O", "melting point": "123 to 127"},
      {"smiles": "CC1(c2ccc(S(C)(=O)=O)cc2)OC=C(Br)C(=O)C1Oc1ccc(F)cc1F", "note": "(stereo unspecified)", "melting point": 230},
      {"smiles": "Cc1c(C(=O)Nc2ccc(N3CCN(CCN(C)C)CC3)c(C#N)c2)cnn1-c1ccc(F)cc1", "melting point": 185},
      {"smiles": "CC1(C)OC(=O)N=C1c1ccccc1", "melting point": "106 to 108"},
      {"smiles": "O=C(c1ccc(Cl)cc1)N1CCC(=Cc2ccc(C3=NCCO3)cc2)CC1", "melting point": "163 to 164"},
      {"smiles": "COc1cc2c(cc1OC)C(c1c[nH]cn1)CCC2", "note": "(stereo unspecified)", "melting point": 140},
      {"smiles": "O=CNC1Cc2cc(Br)cc([N+](=O)[O-])c2NC1=O", "note": "(stereo unspecified)", "melting point": "232 to 235"},
      {"smiles": "Cc1csc2c(-c3ccccc3)c(-c3ccc(Cl)s3)c(CC(=O)O)n12", "melting point": "182 to 183"},
      {"smiles": "COC(=O)NC1CCc2sc(Cl)cc2C1", "note": "(stereo unspecified)", "melting point": "120 to 121"},
      {"smiles": "Cc1cc(C(=O)N2CCCC2)ccc1Br", "melting point": "55 to 57"},
      {"smiles": "O=C1CCCc2cc3c(cc21)sc1ccccc13", "melting point": "160 to 165"},
      {"smiles": "CC1Nc2ccc(S(=O)(=O)N(C)C)cc2S(=O)(=O)N1", "note": "(stereo unspecified)", "melting point": "210 to 212"},
      {"smiles": "CC(C)C[C@H](NC(=O)N1CCN(c2ccccc2)CC1)C(=O)OCc1ccccc1", "melting point": 88},
      {"smiles": "CC(O)(CCN)C1(F)C=CC(c2ccccc2)=CC1", "note": "(stereo unspecified)", "melting point": "144 to 146"},
      {"smiles": "N[C@@H](CSCCC1CCN(C(=O)OCc2ccccc2)CC1)C(=O)O", "melting point": "185 to 188"},
      {"smiles": "CNc1nnc(-c2ccc3occ(-c4ccc(S(C)=O)cc4)c3c2)o1", "note": "(stereo unspecified)", "melting point": "240 to 241"},
      {"smiles": "CCCN(CCC12CC3CC(CC(C3)C1)C2)C(=O)NCCCc1ccncc1", "melting point": "99 to 103"},
      {"smiles": "NC(=O)[C@H]1CN(c2ccc(C3=NNC(=O)CS3)c(F)c2)C(=O)O1", "melting point": "249 to 251"},
      {"smiles": "Nc1ccc(Sc2cccc3cnccc23)cc1NCc1ccccc1", "melting point": "125 to 127"},
      {"smiles": "Cc1cc(C2=NNC(=O)C2)ccc1[N+](=O)[O-]", "melting point": "218 to 219"},
      {"smiles": "COC(=O)CCCc1cc2cc(Cl)ccc2n1S(=O)(=O)c1ccc2nc(C)sc2c1", "melting point": "151 to 153"},
      {"smiles": "COc1cccc(OC2CN([C@H]3CC[C@@H](c4cc5cc(C#N)ccc5[nH]4)CC3)C2)c1", "melting point": "126 to 127"},
      {"smiles": "CC1(C)C=Cc2cc(S(=O)(=O)c3ccccc3)ccc2O1", "melting point": "95 to 96"},
      {"smiles": "N#CC(c1ccc(Cl)cc1)c1ccc(-n2ncc(=O)[nH]c2=O)cc1", "note": "(stereo unspecified)", "melting point": 206},
      {"smiles": "CCOC(=O)C(=CN(C)C)C(=O)C(Cl)Cl", "melting point": "71 to 72"},
      {"smiles": "CCNC(=O)N1CCN(c2ccccc2C(C)(C)C)CC1", "melting point": "196 to 198"},
      {"smiles": "CCCCc1nc2c(N)nc3ccccc3c2n1CCCCNS(=O)(=O)c1cccc2c(N(C)C)cccc12", "melting point": "223 to 224"},
      {"smiles": "C=CCCC[C@H]1CC[C@H](c2ccc(C(C)=O)cc2)CC1", "melting point": 47.6},
      {"smiles": "CN1CN(C(=O)c2c(F)cccc2F)C(=O)N(c2ccc(SC(F)F)cc2F)C1", "melting point": "135 to 137"},
      {"smiles": "COc1cc(N)c(Cl)cc1C(=O)NC1CCN(C)C1", "note": "(stereo unspecified)", "melting point": "185 to 187"},
      {"smiles": "Cc1cccc(S(=O)(=O)n2cccn2)c1C#N", "melting point": "99 to 104"},
      {"smiles": "CC1(C)CCC(C)(C)c2cc(CC#Cc3ccc(C(=O)Nc4ccc(O)cc4)cc3)ccc21", "melting point": "159 to 160"},
      {"smiles": "CN1C(=O)C2(COc3cc4c(cc32)OCCO4)c2c(OCc3ccccc3)cccc21", "note": "(stereo unspecified)", "melting point": "198 to 200"},
      {"smiles": "OC/C=C/c1ccc(Cc2cccnc2)cc1", "melting point": "81 to 82"},
      {"smiles": "Sc1nnc(-c2cnccn2)s1", "melting point": "224 to 228"},
      {"smiles": "O=C1[C@@H]2Cc3c([nH]c4ccccc34)[C@H](c3ccc4c(c3)OCO4)N2C(=O)N1Cc1ccccc1", "note": "(relative stereo)", "melting point": "208 to 210"},
      {"smiles": "COc1ccc(C(CC(=O)c2ccccc2)C(=O)O)cc1", "note": "(stereo unspecified)", "melting point": "157 to 158"},
      {"smiles": "Cc1oc(-c2ccccc2)nc1COc1cccc(C=CC=C2OC(=O)NC2=O)c1", "melting point": "229 to 230"},
      {"smiles": "COC=C(C(=O)OC)c1cnc(C)nc1Oc1cccc(C(F)(F)F)c1", "melting point": "100 to 102"},
      {"smiles": "Nc1cccc2cc(C(=O)O)ccc12", "melting point": "231 to 234"},
      {"smiles": "CCCCCCCN(CCCCCSc1nc(-c2ccc(OC)cc2)c(-c2ccc(OC)cc2)[nH]1)c1nc2ccccc2[nH]1", "melting point": "78 to 80"},
      {"smiles": "COCOc1cccc(ON=C(C)C)c1C#N", "melting point": "62 to 64"},
      {"smiles": "CC(=O)NCCNc1ccc(C2=NNC(=O)CC2C)cc1[N+](=O)[O-]", "note": "(stereo unspecified)", "melting point": 222},
      {"smiles": "CC1Cc2cc3c(cc2C(C=Cc2ccc(N)cc2)=NN1)OCO3", "note": "(stereo unspecified)", "melting point": "159 to 161"},
      {"smiles": "CC(=O)NC[C@H]1CN(c2ccc(C(=O)c3cnc4c(OCc5ccccc5)cccn34)cc2)C(=O)O1", "melting point": "193 to 195"},
      {"smiles": "CNC(=O)c1ccccc1NC(=O)COc1ccc(C(C)=O)cc1", "melting point": "252 to 253"},
      {"smiles": "CCOC(=O)C1(Br)Oc2cc(OC(C)=O)ccc2OC1Br", "note": "(stereo unspecified)", "melting point": 131},
      {"smiles": "CCOC(=O)c1cc2cc(Cl)c(Cl)cc2[nH]1", "melting point": "215 to 218"},
      {"smiles": "O=c1c2cccnc2c(-c2cccc([N+](=O)[O-])c2)nn1Cc1ccccc1", "melting point": 132},
      {"smiles": "CCCc1c(OCCCCCC(=O)c2ccc(O)c(O)c2)ccc(C(=O)O)c1O", "melting point": "188 to 191"},
      {"smiles": "Cc1c(CCCCCCCCCC(=O)O)cccc1C(=O)c1ccc(Cl)cc1", "melting point": 74},
      {"smiles": "CC(C)(C)OC(=O)N(C(=O)OC(C)(C)C)c1c(C#CBr)c(C#N)nn1-c1c(Cl)cc(C(F)(F)F)cc1Cl", "melting point": "130 to 131"},
      {"smiles": "CC(=O)Nc1nc(CCc2ccc(NC(=O)CNC(=O)OC(C)(C)C)cc2)c(Cc2ccc(S(C)(=O)=O)cc2)s1", "melting point": "186 to 188"},
      {"smiles": "CC(C)NCC(O)COc1ccc2c(c1)C(=O)OC2", "note": "(stereo unspecified)", "melting point": "95 to 97"},
      {"smiles": "O=C(CC1=C(n2nc(-c3c(-c4ccccc4)nn4ccccc34)ccc2=O)CCCC1)N1CCNCC1", "melting point": "208 to 209"},
      {"smiles": "Cc1cc2c(c(C)c1NC(=O)OC(C)(C)C)CCO2", "melting point": "121 to 122"},
      {"smiles": "CCCc1nc(N)nc(N)c1N1CCN(c2ccc(C(=O)N[C@@H](CCC(=O)O)C(=O)O)cc2)CC1", "melting point": "280 to 284"},
      {"smiles": "COC(=O)c1nn(Cc2ccc(Br)cc2F)c(=O)c2ccc(F)cc12", "melting point": "131 to 134"},
      {"smiles": "C#CCn1c2c(c3ccccc31)CCCC2", "melting point": "74 to 76"},
      {"smiles": "Cc1nc(-c2ccc(C(F)(F)F)cc2)sc1C(C)(C)Oc1cccc(COC(C)(C)C(=O)O)c1", "melting point": 136},
      {"smiles": "COc1cc(Cl)c(Cl)cc1Oc1ccc(Cl)cc1", "melting point": 105},
      {"smiles": "O=c1c([N+](=O)[O-])c[nH]c2sccc12", "melting point": "288 to 291"},
      {"smiles": "O=c1[nH]c2ncc(-c3ccc4[nH]ncc4c3)nc2n1CC1CCCCC1", "melting point": "311 to 313"},
      {"smiles": "COc1cc2ncc(C#N)c(Nc3ccc4c(C)cc(=O)[nH]c4c3)c2cc1OC", "melting point": "> 300"},
      {"smiles": "S=c1[nH]c2cc(Cl)cc(OCCNCc3ccccc3)c2[nH]1", "melting point": "> 250"},
      {"smiles": "Cc1sc(S(=O)(=O)NC(C)(C)CO)cc1NC(=O)c1cnn2c(C(F)F)cc(-c3ccc(C(F)(F)F)cc3)nc12", "melting point": 180},
      {"smiles": "Cc1c(S(=O)(=O)C(F)(F)F)cc(-c2ccc(S(C)(=O)=O)cc2)n1-c1ccc(F)cc1", "melting point": "162 to 164"},
      {"smiles": "Cc1nc(CCOc2ccc(N)cc2)oc1-c1ccccc1", "melting point": "106 to 107"},
      {"smiles": "Cn1ncnc1COc1nc2c(cc1C(C)(C)C)nnn2-c1ccccc1", "melting point": "165 to 167"},
      {"smiles": "CC(C)C1(C)Cc2cc(OCC#N)c(Cl)c(Cl)c2C1=O", "note": "(stereo unspecified)", "melting point": 133}
    ]}
  ]
}
